SMILES strings stand for the structures. Where two headings read alike, the source gives them in different places.

A word on the EC50: it is the midpoint of the concentration-response curve.

The target of this assay is T1, Full-length glucokinase (beta cell isoform) (Homo sapiens, UniProt P35557).
T1 construct: Full-length glucokinase (beta cell isoform) was His-tagged at N-terminus; His tag (N); made in house
T1 sequence (P35557 1-465): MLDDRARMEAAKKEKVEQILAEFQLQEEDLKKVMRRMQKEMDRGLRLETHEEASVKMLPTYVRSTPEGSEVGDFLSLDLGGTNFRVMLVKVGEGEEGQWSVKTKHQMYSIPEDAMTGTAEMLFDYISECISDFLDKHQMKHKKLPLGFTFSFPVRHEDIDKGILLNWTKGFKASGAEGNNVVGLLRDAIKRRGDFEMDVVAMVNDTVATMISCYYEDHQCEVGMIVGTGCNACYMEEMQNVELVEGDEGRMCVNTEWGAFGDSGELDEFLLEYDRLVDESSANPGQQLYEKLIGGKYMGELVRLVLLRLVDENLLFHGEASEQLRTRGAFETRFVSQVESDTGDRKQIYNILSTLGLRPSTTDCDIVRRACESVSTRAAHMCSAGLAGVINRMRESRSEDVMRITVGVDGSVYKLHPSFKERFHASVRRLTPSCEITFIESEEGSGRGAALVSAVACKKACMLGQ
As to the kind of experiment: Glucokinase biochemical assay (PK/LDH-coupled, NADH depletion at 340 nm): % activation, EC50, % max activation. The conditions noted are these: 5 mM glucose; for activation at 10 µM: read-out: % Activation at 10 uM; for EC50: read-out: EC50; for Emax: read-out: % Max Activation. The procedure, abridged: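 N-terminally His-tagged full-length human beta-cell glucokinase, room temperature, 5 mM glucose, 1 mM ATP, PK/LDH-coupled with 0.7 mM NADH, 1% DMSO final. Initial velocity from the 200–900 s slope of A340 decline. % activation = (Va/Vo−1)×100, measured across compound concentrations.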

The mark [1] stands for this setting: 10 uM compound, % Activation=(Va/Vo−1)×100.
Where [2] appears, read: compound at 10 uM, 1 mM ATP, room temperature.

Turning to `Cn1ncc(NC(=O)c2cc(Oc3ccc(S(C)(=O)=O)c(F)c3)c3c(c2)OC(C)(C)C3)n1` [Example 117, 4-(3-Fluoro-4-methanesulfonyl-phenoxy)-2,2-dimethyl-2,3-dihydro-benzofuran-6-carboxylic acid (2-methyl-2H-[1,2,3]triazol-4-yl)-amide], the activation at 10 µM under setting [1] turned out to be 325%. Moreover, the EC50 (GK activation) turned out to be 150 nM. Besides, the Emax (fitted maximum activation) was found to be 283%.

On to `COCc1cc2c(Oc3ccc(S(C)(=O)=O)cc3)cc(C(=O)Nc3cc(C)on3)cc2o1` [Example 315, 2-(Methoxymethyl)-N-(5-methylisoxazol-3-yl)-4-[4-(methylsulfonyl)phenoxy]-1-benzofuran-6-carboxamide], for which the activation at 10 µM under setting [1] came to 11.9%.

For `Cn1ccc(NC(=O)c2cc(Oc3ccc(CO)cc3F)c3c(c2)OC(C)(C)C3)n1` [Example 40, 4-(2-Fluoro-4-hydroxymethyl-phenoxy)-2,2-dimethyl-2,3-dihydro-benzofuran-6-carboxylic acid(1-methyl-1H-pyrazol-3-yl)-amide], under setting [1], the “% Activation at 10 uM” value turned out to be 109%. In addition, the EC50 (GK activation) came out at 3600 nM. Moreover, the “% Max Activation” value (fitted maximum activation) turned out to be 150%.

As for `Cn1ccc(NC(=O)c2cc(OCC(=O)c3ccc(CO)cc3)c3c(c2)OC(C)(C)C3)n1` [Example 97, 4-[2-(4-Hydroxymethyl-phenyl)-2-oxo-ethoxy]-2,2-dimethyl-2,3-dihydro-benzofuran-6-carboxylic acid (1-methyl-1H-pyrazol-3-yl)-amide], the activation at 10 µM under setting [1] turned out to be 131%. Further, the EC50 (GK activation) stood at 3400 nM. Moreover, the Emax (fitted maximum activation) stood at 123%.

For the molecule `CCN1Cc2c(Oc3ccc(S(C)(=O)=O)cc3)cc(C(=O)Nc3ccn(C)n3)cc2C1=O` [Example 380, 2-Ethyl-N-(1-methyl-1H-pyrazol-3-yl)-7-(4-(methylsulfonyl)-phenoxy)-3-oxoisoindoline-5-carboxamide], where the note is “1 mM ATP, room temperature”, the EC50 was above 10000 nM. In addition, under setting [2], the activation at 10 µM was 67.9%.

`CO[C@@H]1CCN(C(=O)c2ccc(Oc3cc(C(=O)Nc4ccn(C)n4)cc4c3CC(C)(C)O4)cc2F)C1` [Example 59, 4-[3-Fluoro-4-((R)-3-methoxy-pyrrolidine-1-carbonyl)-phenoxy]-2,2-dimethyl-2,3-dihydro-benzofuran-6-carboxylic acid(1-methyl-1H-pyrazol-3-yl)-amide]: the activation at 10 µM under setting [1] is 172%. Further, for the setting “GK activation”, the EC50 was found to be 250 nM. For the same molecule, for the setting “fitted maximum activation”, the Emax was determined as 168%.

As for `CN(C)C(=O)c1ccc(Oc2cc(C(=O)Nc3ccn(C)n3)cc3c2CC(C)(C)O3)c(F)c1` [Example 46, 4-(4-Dimethylcarbamoyl-2-fluoro-phenoxy)-2,2-dimethyl-2,3-dihydro-benzofuran-6-carboxylic acid(1-methyl-1H-pyrazol-3-yl)-amide], under setting [1], the activation at 10 µM was determined as 118%. The EC50 (GK activation) is 310 nM. Further, the Emax (fitted maximum activation) came out at 138%.

Regarding `Cn1ccc(NC(=O)c2cc(Oc3ccc(C(=O)N4CCCC4)nc3)c3c(c2)OC(C)(C)C3)n1` [Example 398, 2,2-Dimethyl-4-[6-(pyrrolidine-1-carbonyl)-pyridin-3-yloxy]-2,3-dihydro-benzofuran-6-carboxylic acid(1-methyl-1H-pyrazol-3-yl)-amide], where the note is “1 mM ATP, room temperature”, the EC50 was 56 nM. Moreover, the activation at 10 µM under setting [2] is 128%. Further, the Emax (fitted maximum activation, 1 mM ATP) amounted to 114%.

With `Cn1ccc(NC(=O)c2cc(Oc3ccc(S(C)(=O)=O)cc3Cl)c3c(c2)OC(C)(C)C3)n1` [Example 137, 4-(2-Chloro-4-methanesulfonyl-phenoxy)-2,2-dimethyl-2,3-dihydro-benzofuran-6-carboxylic acid (1-methyl-1H-pyrazol-3-yl)-amide], the activation at 10 µM under setting [1] is 212%. For the same molecule, the EC50 (GK activation) is 270 nM. Moreover, for the setting “fitted maximum activation”, the Emax came out at 218%.

Turning to `Cn1ccc(NC(=O)c2cc(Oc3cc(F)cc(F)c3)c3c(c2)OC(C)(C)C3)n1` [Example 113, 4-(3,5-Difluoro-phenoxy)-2,2-dimethyl-2,3-dihydro-benzofuran-6-carboxylic acid (1-methyl-1H-pyrazol-3-yl)-amide], the activation at 10 µM under setting [1] was determined as 239%. The EC50 (GK activation) came out at 2600 nM. The Emax (fitted maximum activation) amounted to 265%.

Consider `Cc1cc2c(Oc3ccc(S(C)(=O)=O)cc3)cc(C(=O)Nc3ccc(Cl)cn3)cc2o1` [Example 260, N-(5-chloropyridin-2-yl)-2-methyl-4-(4-(methylsulfonyl)-phenoxy)benzofuran-6-carboxamide], for which the activation at 10 µM under setting [1] was found to be 53.1%. Further, the EC50 (GK activation) was determined as 2900 nM. For the same molecule, the Emax (fitted maximum activation) is 69%.

As for `COCc1cc2c(Oc3ccc(S(C)(=O)=O)cc3)cc(C(=O)Nc3cnc(OC)cn3)cc2o1` [Example 312, 2-(Methoxymethyl)-N-(5-methoxypyrazin-2-yl)-4-[4-(methylsulfonyl)phenoxy]-1-benzofuran-6-carboxamide], the activation at 10 µM under setting [1] is 112%. Under “GK activation”, the EC50 was determined as 490 nM. Besides, the Emax (fitted maximum activation) amounted to 121%.

Regarding `CC(C)N1Cc2c(Oc3ccc(S(C)(=O)=O)cc3)cc(C(=O)Nc3ccn(C)n3)cc2C1=O` [Example 384, 2-Isopropyl-N-(1-methyl-1H-pyrazol-3-yl)-7-(4-(methylsulfonyl)-phenoxy)-3-oxoisoindoline-5-carboxamide], the activation at 10 µM under setting [2] was determined as 33.2%.

Take `Cc1ccc(NC(=O)c2cc(Oc3ccc(S(C)(=O)=O)cc3)c3occc3c2)nc1` [Example 333, N-(5-methylpyridin-2-yl)-7-[4-(methylsulfonyl)phenoxy]-1-benzofuran-5-carboxamide]: the activation at 10 µM under setting [1] was 52.8%. Also, the EC50 (GK activation) is 8600 nM. The Emax (fitted maximum activation) was 106%.

For the molecule `COCc1cc2c(Oc3ccc(S(C)(=O)=O)cc3)cc(C(=O)Nc3cnc(N(C)C)cn3)cc2o1` [Example 311, N-[5-(Dimethylamino)pyrazin-2-yl]-2-(methoxymethyl)-4-[4-(methylsulfonyl)-phenoxy]-1-benzofuran-6-carboxamide], under setting [1], the activation at 10 µM came to 106%. For the setting “GK activation”, the EC50 came out at 380 nM. The Emax (fitted maximum activation) was found to be 114%.

On to `Cc1cc2c(Oc3ccc(S(C)(=O)=O)cc3)cc(C(=O)Nc3cccc(CO)n3)cc2o1` [Example 268, N-(6-(Hydroxymethyl)pyridin-2-yl)-2-methyl-4-(4-(methylsulfonyl)phenoxy)-benzofuran-6-carboxamide], for which, under setting [1], the activation at 10 µM was 6.4%. For the same molecule, where the note is “GK activation”, the EC50 was above 10000 nM.

For `Cn1ncc(NC(=O)c2cc(Oc3ccc(S(=O)(=O)C4CC4)c(F)c3)c3c(c2)OC(C)(C)C3)n1` [Example 140, 4-(4-Cyclopropanesulfonyl-3-fluoro-phenoxy)-2,2-dimethyl-2,3-dihydro-benzofuran-6-carboxylic acid (2-methyl-2H-[1,2,3]triazol-4-yl)-amide], the activation at 10 µM under setting [1] came to 196%. Also, the EC50 (GK activation) was found to be 170 nM. The Emax (fitted maximum activation) was determined as 236%.

`Cn1ccc(NC(=O)c2cc(Oc3cc(F)ccc3S(C)(=O)=O)c3c(c2)OC(C)(C)C3)n1` [Example 115, 4-(5-Fluoro-2-methanesulfonyl-phenoxy)-2,2-dimethyl-2,3-dihydro-benzofuran-6-carboxylic acid (1-methyl-1H-pyrazol-3-yl)-amide]: under setting [1], the activation at 10 µM worked out at 79.7%. The EC50 (GK activation) came to 8800 nM. Further, the Emax (fitted maximum activation) worked out at 141%.

The record behind these values is patent publication US8119624B2, “Fused phenyl amido heterocyclic compounds” (Pfizer Inc., priority 2006, dated 2012).
